Results reported in ChEMBL document CHEMBL4002545, “Design, synthesis and antimicrobial evaluation of novel benzoxazole derivatives” (2017).
≈ marks a conversion by molar mass, not a printed value.

Columns and labels:
[1] = test system: Candida albicans; test: microbe, parasite or virus in culture; assay type: functional; settings: ATCC 10231, 24 h
Description: Anti-fungal activity against Candida albicans ATCC 10231 measured after 24 hrs by microtiter broth dilution method

[2] = test system: Bacillus subtilis; test: Potency index, ratio of Cefotaxime IC50 to compound IC50 for anti-bacterial activity against Bacillus subtilis ATCC 33712; assay type: functional
[3] = test system: Staphylococcus aureus; test: Anti-bacterial activity against Staphylococcus aureus ATCC 10832 measured after 24 hrs by microtiter broth dilution method; assay type: functional; settings: ATCC 10832, 24 h
[4] = test system: Staphylococcus aureus; test: Anti-bacterial activity against methicillin-resistant Staphylococcus aureus ATCC 700699 measured after 24 hrs by microtiter broth dilution method; assay type: functional; settings: Mu50, 24 h
[5] = test system: Bacillus subtilis; test: Potency index, ratio of sodium penicillin IC50 to compound IC50 for anti-bacterial activity against Bacillus subtilis ATCC 33712; assay type: functional
[6] = test system: Escherichia coli; test: Anti-bacterial activity against Escherichia coli ATCC 11303 measured after 24 hrs by microtiter broth dilution method; assay type: functional; settings: ATCC 11303, 24 h
[7] = test system: Bacillus subtilis; test: Potency index, ratio of Cefradine MIC to compound MIC for anti-bacterial activity against Bacillus subtilis ATCC 33712
[8] = test system: Bacillus subtilis; test: Potency index, ratio of ceftazidime IC50 to compound IC50 for anti-bacterial activity against Bacillus subtilis ATCC 33712; assay type: functional
[9] = test system: Bacillus subtilis; test: Anti-bacterial activity against Bacillus subtilis ATCC 33712 measured after 24 hrs by microtiter broth dilution method; assay type: functional; settings: ATCC 33712, 24 h

For CC(C)c1ccc(CCc2nc3cc(C[C@H](Oc4ccc(C(C)(C)C)cc4)C(=O)O)ccc3o2)cc1, the MIC [1] was over 200 µg/mL, the “Ratio IC50” value [2] was 8 - 510 and the MIC [3] was 0.39 µg/mL (≈ 0.803 µM). The MIC [4] was 0.195 µg/mL (≈ 0.402 µM), the “Ratio IC50” value [5] was 2 and the MIC [6] was 0.78 µg/mL (≈ 1.61 µM). For the same compound, the “Ratio MIC” value [7] was 8 - 510, the “Ratio IC50” value [8] was 8 - 510 and the MIC [9] was 0.098 µg/mL (≈ 0.202 µM).
CC(C)(C)c1ccc(O[C@@H](Cc2ccc3oc(CCc4ncco4)nc3c2)C(=O)O)cc1 gave an MIC [1] of over 200 µg/mL, an MIC [3] of over 200 µg/mL and an MIC [4] of 200 µg/mL (≈ 460 µM). The MIC [6] was over 200 µg/mL and the MIC [9] was 200 µg/mL (≈ 460 µM).
Compound CC1=C(C(=O)O)N2C(=O)[C@@H](NC(=O)[C@H](N)C3=CCC=CC3)[C@H]2SC1 [CEPHRADINE] has an MIC [3] of 25 µg/mL (≈ 71.5 µM), an MIC [4] of 50 µg/mL (≈ 143 µM) and an MIC [6] of 25 µg/mL (≈ 71.5 µM). For the same compound, the MIC [9] was 50 µg/mL (≈ 143 µM).
In the case of CC(C)(C)c1ccc(O[C@@H](Cc2ccc3oc(CCc4ccccc4)nc3c2)C(=O)O)cc1, the MIC [1] is reported as over 200 µg/mL, the MIC [3] is reported as 1.56 µg/mL (≈ 3.52 µM) and the MIC [4] is reported as 1.56 µg/mL (≈ 3.52 µM). The MIC [6] was 3.12 µg/mL (≈ 7.03 µM) and the MIC [9] was 0.39 µg/mL (≈ 0.879 µM).
Work on CCCCCCCc1nc2cc(C[C@H](Oc3ccc(C(C)(C)C)cc3)C(=O)O)ccc2o1 yielded an MIC [1] of over 200 µg/mL, an MIC [3] of 0.78 µg/mL (≈ 1.78 µM) and an MIC [4] of 1.56 µg/mL (≈ 3.57 µM). It also gave an MIC [6] of 1.56 µg/mL (≈ 3.57 µM) and an MIC [9] of 0.78 µg/mL (≈ 1.78 µM).
In the case of CC(C)(C)c1ccc(O[C@@H](Cc2ccc3oc(CCc4cn5cc(C(F)(F)F)ccc5n4)nc3c2)C(=O)O)cc1, the MIC [1] is reported as over 200 µg/mL, the MIC [3] is reported as 50 µg/mL (≈ 90.7 µM) and the MIC [4] is reported as 25 µg/mL (≈ 45.3 µM). The MIC [6] was over 200 µg/mL and the MIC [9] was 50 µg/mL (≈ 90.7 µM).
CC(C)(C)c1ccc(O[C@@H](Cc2ccc3oc(CC4CCOCC4)nc3c2)C(=O)O)cc1 showed an MIC [1] of over 200 µg/mL, an MIC [6] of over 200 µg/mL and an MIC [9] of 200 µg/mL (≈ 457 µM).
In the case of CO/N=C(\C(=O)N[C@@H]1C(=O)N2C(C(=O)O)=C(COC(C)=O)CS[C@H]12)c1csc(N)n1 [CEFOTAXIME], the MIC [3] is reported as 3.12 µg/mL (≈ 6.85 µM), the MIC [4] is reported as 3.12 µg/mL (≈ 6.85 µM) and the MIC [6] is reported as 200 µg/mL (≈ 439 µM). The MIC [9] was 0.78 µg/mL (≈ 1.71 µM).
Compound CC(C)Cc1nc2cc(C[C@H](Oc3ccc(C(C)(C)C)cc3)C(=O)O)ccc2o1 has an MIC [1] of over 200 µg/mL, an MIC [6] of 3.12 µg/mL (≈ 7.89 µM) and an MIC [9] of 1.56 µg/mL (≈ 3.94 µM).
CC(=O)N1CCN(c2ccc(OCC3COC(Cn4ccnc4)(c4ccc(Cl)cc4Cl)O3)cc2)CC1 (stereo not drawn) [KETOCONAZOLE] was tested, and the MIC [1] was under 0.39 µg/mL.
Cc1oc(-c2ccccc2)nc1CCCc1nc2cc(C[C@H](Oc3ccc(C(C)(C)C)cc3)C(=O)O)ccc2o1 showed an MIC [1] of over 200 µg/mL, an MIC [3] of 1.56 µg/mL (≈ 2.9 µM) and an MIC [4] of 1.56 µg/mL (≈ 2.9 µM). For the same compound, the MIC [6] was 3.12 µg/mL (≈ 5.79 µM) and the MIC [9] was 3.12 µg/mL (≈ 5.79 µM).
For COc1cc(CCc2nc3cc(C[C@H](Oc4ccc(C(C)(C)C)cc4)C(=O)O)ccc3o2)cc(OC)c1OC, the MIC [1] was over 200 µg/mL, the MIC [3] was 100 µg/mL (≈ 187 µM) and the MIC [4] was 100 µg/mL (≈ 187 µM). It also gave an MIC [6] of 200 µg/mL (≈ 375 µM) and an MIC [9] of 100 µg/mL (≈ 187 µM).
In the case of Cc1oc(-c2ccccc2)nc1CCc1nc2cc(C[C@H](Oc3ccc(C(C)(C)C)cc3)C(=O)O)ccc2o1, the MIC [1] is reported as over 200 µg/mL, the MIC [3] is reported as 1.56 µg/mL (≈ 2.97 µM) and the MIC [4] is reported as 0.78 µg/mL (≈ 1.49 µM). The MIC [6] was 1.56 µg/mL (≈ 2.97 µM) and the MIC [9] was 0.78 µg/mL (≈ 1.49 µM).
In the case of CC1(C)S[C@@H]2[C@H](NC(=O)Cc3ccccc3)C(=O)N2[C@H]1C(=O)[O-].[Na+] [PENICILLIN G SODIUM], the MIC [3] is reported as 3.12 µg/mL, the MIC [4] is reported as 3.12 µg/mL and the MIC [6] is reported as 0.78 µg/mL. It also gave an MIC [9] of 0.195 µg/mL.
In the case of CC(C)(C)c1ccc(O[C@@H](Cc2ccc3oc(CCc4cc5ccccc5o4)nc3c2)C(=O)O)cc1, the MIC [1] is reported as over 200 µg/mL, the MIC [3] is reported as 0.78 µg/mL (≈ 1.61 µM) and the MIC [4] is reported as 0.78 µg/mL (≈ 1.61 µM). For the same compound, the MIC [6] was 0.78 µg/mL (≈ 1.61 µM) and the MIC [9] was 0.39 µg/mL (≈ 0.807 µM).
For CC(C)(O/N=C(\C(=O)N[C@@H]1C(=O)N2C(C(=O)[O-])=C(C[n+]3ccccc3)CS[C@H]12)c1csc(N)n1)C(=O)O [CEFTAZIDIME], the MIC [3] was 0.78 µg/mL (≈ 1.43 µM), the MIC [4] was 12.5 µg/mL (≈ 22.9 µM) and the MIC [6] was 200 µg/mL (≈ 366 µM). It also gave an MIC [9] of 6.25 µg/mL (≈ 11.4 µM).
CC(C)(C)c1ccc(O[C@@H](Cc2ccc3oc(CCc4ccc(F)cc4)nc3c2)C(=O)O)cc1 showed an MIC [1] of over 200 µg/mL, an MIC [3] of 1.56 µg/mL (≈ 3.38 µM) and an MIC [4] of 1.56 µg/mL (≈ 3.38 µM). For the same compound, the MIC [6] was 1.56 µg/mL (≈ 3.38 µM) and the MIC [9] was 0.39 µg/mL (≈ 0.845 µM).
With Clc1ccc(COC(Cn2ccnc2)c2ccc(Cl)cc2Cl)c(Cl)c1.O=[N+]([O-])O (stereo not drawn) [MICONAZOLE NITRATE] the MIC [1] was 1.56 µg/mL.
